Patent publication US20220184041A1, “(AZA)Benzothiazolyl Substituted Pyrazole Compounds” (Pfizer Inc., priority 2020, published 2022)
Like-named read-outs stand apart in the source and are kept apart here.

How the values were obtained:
Bap-tagged TTR protein = target: T1, Bap-tagged TTR protein (Homo sapiens, UniProt P02766); assay: KD determination by SPR (Surface Plasmon Resonance binding assay); conditions: for Kd: 1:1 binding model, read-out: Geometric Mean KD (μM) [SPR]
T1 construct: Bap tag (biotin acceptor peptide, by own knowledge)
Experimental: Affinity and Reversibility—The binding affinity and kinetics of binding were measured using Surface Plasmon Resonance based binding assay. […] Bap-tagged TTR protein was captured on a Streptavidin coated sensor chip to achieve about 2000 to 3000 RUs of surface density. All the samples were prepared in buffer consisting of 10 mM Sodium Phosphate, pH 7.6, 100 mM KCl, 0.005% Tween-20 and 2% DMSO. The same buffer was used as the running buffer during the experiments. Compound samples were injected at a flow rate of 30 μL/min for 90 seconds of association time followed by at least 240 seconds of dissociation period. The compounds were tested in a concentration series consisting of at least 6 samples (usually 10) made with 5-fold, 3-fold, or 2-fold dilution. […] Multiple blank injections were run before and after each compound series to allow double reference subtraction during data processing and analysis. […] A DMSO curve was run during each experiment to properly correct for excluded volume.

[1] = target: Recombinant wild-type TTR (Homo sapiens, UniProt P02766); assay: KD determination by ITC (Isothermal Titration Calorimetry); conditions: 25° C., sequential binding model with 2 sites
Experimental: KD Determination by ITC—Isothermal Titration Calorimetry
Recombinant wild-type TTR was diluted to 6.9 μM in 100 mM potassium chloride, 10 mM sodium phosphate pH 7.6, 2.5% DMSO, then degassed and transferred to the sample cell of a VP-ITC instrument (MicroCal). Compounds were diluted to 120 μM in an identical buffer, degassed, and injected 7 μL at a time into the protein solution at 25° C. with a reference power of 10 μCal/sec and 300 second spacing between injections.
Data were analyzed using VP-ITC analysis software in Origin. The data were corrected for heat of dilution then fit to a sequential binding model with 2 sites and K1, ΔH1, K2, and ΔH2 as independent parameters. If necessary, the protein concentration was adjusted by fitting the data to a two-independent-sites model and using the calculated N values to estimate the actual protein concentration that yields two total sites.

[2] = target: T2, human TTR (biotinylated recombinant protein) (Homo sapiens, UniProt P02766); assay: TTR SPA binding assay ([3H] tafamidis displacement), EC50 determination; conditions: read-out: Geometric Mean EC50
T2 construct: biotin (biotinylated)
Experimental: Binding of Examples to Transthyretin—EC50 Determination
Briefly, assays were prepared at room temperature in 384-well plates (Corning, 3767) containing 200 nL of test compound in DMSO (or DMSO as vehicle). […] The plates were incubated 1 hour prior to addition of 20 μL of 1.25 mg/mL SPA beads diluted in assay buffer. The assays were incubated an additional 10 hours to allow binding to reach equilibrium and the amount of receptor-ligand complex was determined by liquid scintillation counting using a 1450 Microbeta Trilux (Wallac).
The % effect values for test wells were calculated based on the total binding (vehicle, 0% effect) and non-specific binding (unlabeled ligand, 100% effect) wells on each assay plate. EC50 values were then determined using a standard 4 parameter logistic dose response equation.

[3] = first site, read-out: Geometric Mean KD1 (μM) [ITC]
[4] = second site, read-out: Geometric Mean KD2 (μM) [ITC]
[5] = SPA, 50 nM [3H] tafamidis, 100 ng human TTR

Row | SMILES | Kd (Bap-tagged TTR protein) [µM] | EC50 [2, 5] [nM] | other results
1 | Cc1n[nH]c(C)c1-c1cccc2scnc12 [Example 1, 4-(3,5-dimethyl-1H-pyrazol-4-yl)-1,3-benzothiazole] | 0.039 | 31 | Kd [1, 3]: 0.025 µM; Kd [1, 4]: 0.458 µM
2 | Cc1n[nH]c(C)c1-c1cccc2ncsc12 [Example 2, 7-(3,5-dimethyl-1H-pyrazol-4-yl)-1,3-benzothiazole] |  |  | Kd [1, 3]: 0.005 µM; Kd [1, 4]: 0.431 µM
3 | Cc1n[nH]c(C)c1-c1ccc(C)c2scnc12 [Example 3, 4-(3,5-dimethyl-1H-pyrazol-4-yl)-7-methyl-1,3-benzothiazole] | 0.02 | 20 | 
4 | Cc1n[nH]c(C)c1-c1ccc(C(F)(F)F)c2scnc12 [Example 4, 4-(3,5-dimethyl-1H-pyrazol-4-yl)-7-(trifluoromethyl)-1,3-benzothiazole] | 0.049 | 40 | 
5 | Cc1n[nH]c(C)c1-c1ccc(C#N)c2scnc12 [Example 5, 4-(3,5-dimethyl-1H-pyrazol-4-yl)-1,3-benzothiazole-7-carbonitrile] | 0.052 | 52 | 
6 | Cc1nc2c(-c3c(C)n[nH]c3C)cccc2s1 [Example 6, 4-(3,5-dimethyl-1H-pyrazol-4-yl)-2-methyl-1,3-benzothiazole] | 0.574 | 1780 | 
7 | Cc1[nH]nc(C#N)c1-c1cccc2scnc12 [Example 7, 4-(1,3-benzothiazol-4-yl)-5-methyl-1H-pyrazole-3-carbonitrile] | 0.074 | 66.1 | 
8 | Cc1[nH]nc(C#N)c1-c1ccc(C)c2scnc12 [Example 8, 5-methyl-4-(7-methyl-1,3-benzothiazol-4-yl)-1H-pyrazole-3-carbonitrile] | 0.027 |  | EC50 [2]: 19.6 nM
9 | Cc1[nH]nc(C#N)c1-c1ccc(C(F)(F)F)c2scnc12 [Example 9, 5-methyl-4-[7-(trifluoromethyl)-1,3-benzothiazol-4-yl]-1H-pyrazole-3-carbonitrile] | 0.62 |  | EC50 [2]: 35.5 nM
10 | Cc1n[nH]c(C)c1-c1nccc2scnc12 [Example 10, 4-(3,5-dimethyl-1H-pyrazol-4-yl)[1,3]thiazolo[4,5-c]pyridine] | 0.297 | 894 | 
11 | COc1ccc(-c2c(C)n[nH]c2C)c2ncsc12 [Example 11, 4-(3,5-dimethyl-1H-pyrazol-4-yl)-7-methoxy-1,3-benzothiazole] |  | 36.3 | 
12 | Cc1n[nH]c(C)c1-c1ccc(F)c2scnc12 [Example 12, 4-(3,5-dimethyl-1H-pyrazol-4-yl)-7-fluoro-1,3-benzothiazole] |  | 37.2 | 
13 | Cc1cc(-c2c(C)n[nH]c2C)c2ncsc2c1 [Example 13, 4-(3,5-dimethyl-1H-pyrazol-4-yl)-6-methyl-1,3-benzothiazole] | 0.058 |  | EC50 [2]: 21.4 nM
14 | COc1cc(-c2c(C)n[nH]c2C)c2ncsc2c1 [Example 14, 4-(3,5-dimethyl-1H-pyrazol-4-yl)-6-methoxy-1,3-benzothiazole] | 0.031 |  | EC50 [2]: 24.5 nM
15 | Cc1n[nH]c(C)c1-c1cc(F)cc2scnc12 [Example 15, 4-(3,5-dimethyl-1H-pyrazol-4-yl)-6-fluoro-1,3-benzothiazole] | 0.027 |  | EC50 [2]: 20.5 nM
16 | Cc1n[nH]c(C)c1-c1cc(C#N)cc2scnc12 [Example 16, 4-(3,5-dimethyl-1H-pyrazol-4-yl)-1,3-benzothiazole-6-carbonitrile] |  | 159 | 
17 | Cc1n[nH]c(C)c1-c1c(F)ccc2scnc12 [Example 17, 4-(3,5-dimethyl-1H-pyrazol-4-yl)-5-fluoro-1,3-benzothiazole] |  | 28.7 | 
18 | Cc1[nH]nc(C(F)(F)F)c1-c1cccc2scnc12 [Example 18, 4-[5-methyl-3-(trifluoromethyl)-1H-pyrazol-4-yl]-1,3-benzothiazole] |  | 133 | 
19 | Cc1n[nH]c(C)c1-c1ccnc2scnc12 [Example 19, 7-(3,5-dimethyl-1H-pyrazol-4-yl)[1,3]thiazolo[5,4-b]pyridine] |  | 165 | 
20 | O=C(O)c1ccc2nc(-c3cc(Cl)cc(Cl)c3)oc2c1 [tafamidis, 2-(3,5-dichlorophenyI)-1,3-benzoxazole-6-carboxylic acid, reference compound] |  |  | reversibility of binding to TTR (Bap-tagged TTR protein): reversible; t1/2 (Bap-tagged TTR protein; tafamidis binding to TTR, n=24): 40.8 s
